Measurements published in patent US20230220047A1, “PEPTIDES FOR TREATMENT OF SEPSIS AND CANCER” (NORWEGIAN UNIVERSITY OF SCIENCE AND TECHNOLOGY (NTNU), priority 2020, published 2023).

Tests used:
[1] = tested on: INA-6 multiple myeloma cells; assay: CellTiter-Glo cell viability assay, INA-6; format: cell-based, human; details: INA-6, 12.5 μM, 48 h
Experimental: Minor effects on the proliferation of the IH-1 and RPMI 8226 cell lines are seen. Cells were seeded at the level shown (left-hand bar of each set) then incubated in medium containing water, 10 μM penetratin or 10 μM P7-A4-Pen for 48 hr (except for INA-6 cells, which were incubated with 12.5 μM penetratin or 12.5 μM P7-A4-Pen). The number of viable cells was detected based on quantitation of ATP by luminescent signal in correlation to a standard curve prepared for each cell line. Results are based on 3-5 biological replicates for each condition, error bars show standard deviation of mean.
Multiple myeloma cells JJN-3 (DSMZ (Germany) no. ACC 541), ANBL-6 (Cellosaurus accession number CVCL_5425, obtained from Dr Diane Jelinek, Mayo Clinic, Rochester, Minn.), INA-6 (Cellosaurus accession number CVCL_5209, obtained from Dr M. Gramatzki, University of Erlangen-Nurnberg, Erlangen, Germany), RPMI-8226 (ATCC CCL-155), and IH-1 (Cellosaurus accession number CVCL_WZ44, established from the pleural effusion of a myeloma patient by Myeloma research group, IKOM, NTNU, Trondheim, Norway) were grown in RPMI-1640 (Sigma-Aldrich Norway, Oslo, Norway) supplemented with 100 nM penicillin/streptomycin and 10% FCS, and for ANBL-6, IH-1 and INA-6 cells 2 ng/ml recombinant IL-6 (Gibco, Thermo Fisher Scientific, Waltham, Mass., USA). […]

[2] = tested on: murine TLR7; assay: TLR7-mediated cytokine expression in murine macrophages (R848); format: cell-based, mouse; details: R848 (data not shown)
Source text: Thus, P7-Pen interferes with signaling initiated by human TLR7 and TLR8, but has no effect on signaling via murine TLR7 (murine TLR8 is believed to be non-functional).

[3] = target: T1, MyD88 signaling complex (Homo sapiens, UniProt P51617+Q99836+Q9NWZ3); assay: IRAK immunoprecipitations from LPS-stimulated human monocytes; format: cell-based; details: 15 μM, LPS 100 ng/ml
T1 construct: abrogated IRAK1, 2 and 4 recruitment to the MyD88 signaling complex in human monocytes; endogenous in cells; host or cells: primary human monocytes, LPS-stimulated
Experimental: Cell were pre-treated with Pen or P7-Pen (15 μM) for 30 min before addition of LPS (100 ng/ml) for specified time periods. Precipitations were performed using sheep anti-IRAK4 (A), anti-IRAK1 (B) and anti-IRAK2 (C) polyclonal antibodies covalently bound to magnetic beads, followed by Western blot analysis of lysates and precipitated proteins.
Pre-treatment of monocytes with P7-Pen abrogated recruitment of all tested IRAKs (1,2 and 4) to MyD88 (FIG. 28). This could be achieved by the peptide disrupting the Mal-MyD88 interaction, Mal-IRAK interactions or MyD88-IRAK interactions. Since IL-1R-initiated signalling through the Myddosome complex is not inhibited by the P7 peptide (see above), it is most likely that P7 interferes with Mal-IRAK interactions or the Mal-MyD88 interaction, rather than MyD88-IRAK interactions (since Mal is not involved in IL-1R signaling).

[4] = tested on: THP-1 TRAM KO cells; assay: qPCR of LPS-mediated cytokine expression in THP-1 TRAM KO cells; format: cell-based, human; details: 10 μM, LPS 100 ng/ml 2 or 4 h
Experimental: Control THP-1 CRISPR cells and TRAM KO cells were pre-treated with 10 μM peptides—control peptides with amino acid substitutions (C3-Pen) or TRAM-targeting peptide Pep7-Penetratin (P7-Pen)—for 30 min before stimulation with LPS (100 ng/ml) for 2 or 4 h. Cells were lysed with Qiazol, followed by RNA isolation and quantitative PCR analysis of cytokine mRNA expression.
In human cells (THP-1 cell line) TRAM expression was not required for TLR4-mediated IL-1β or TNF expression in response to LPS or E. coli particles (FIG. 21, lower panels). P7-Pen was as effective in reducing expression of pro-inflammatory cytokines in THP-1 TRAM KO cells as in control cells (FIG. 22).

[5] = tested on: primary human monocytes; assay: LDH cell viability in primary human monocytes; format: cell-based; details: compared to control peptides or P7-Pen
[6] = tested on: STAT1; assay: Western blot of STAT1 phosphorylation in LPS-stimulated THP-1 cells; format: cell-based, human; details: LPS
Experimental: Protein pellets were dissolved by heating protein pellets for 10 min at 95° C. in buffer containing 4 M urea, 1 SDS (Sigma) and NuPAGE® LDS Sample Buffer (4×) (Thermo Fisher Scientific). Otherwise, lysates were made using 1× RIPA lysis buffer (150 mM NaCl, 50 mM TrisHCl (pH 7.5), 1% Triton X100, 5 mM EDTA, protease inhibitors, phosphatase inhibitors). For Western blot analysis we used pre-cast protein gels NuPAGE™ Novex™ and iBlot Transfer Stacks iBlot Gel Transfer Device (Thermo Fisher Scientific). Proteins were transferred to the membrane by dry-blotting using iBlot® 2 NC Regular/Mini Stacks (Life Technologies) in the iBlot 2 Dry Blotting System (Life Technologies). After secondary antibody incubation, membranes were washed and incubated with HRP substrate solution (SuperSignal™ West Femto Maximum Sensitivity Substrate (Thermo Fisher Scientific)). Images were taken using Odyssey® Fc (LI-CORE). Quantification graphs were generated by the analysis of signal intensities for protein bands (protein of interest and endogenous loading control—β-tubulin from the same membrane) using Odyssey software (LI-CORE). Data were normalised to the expression levels of β-tubulin and presented as a relative fold change to the control sample.

T1 sequence (Q99836 whole entry): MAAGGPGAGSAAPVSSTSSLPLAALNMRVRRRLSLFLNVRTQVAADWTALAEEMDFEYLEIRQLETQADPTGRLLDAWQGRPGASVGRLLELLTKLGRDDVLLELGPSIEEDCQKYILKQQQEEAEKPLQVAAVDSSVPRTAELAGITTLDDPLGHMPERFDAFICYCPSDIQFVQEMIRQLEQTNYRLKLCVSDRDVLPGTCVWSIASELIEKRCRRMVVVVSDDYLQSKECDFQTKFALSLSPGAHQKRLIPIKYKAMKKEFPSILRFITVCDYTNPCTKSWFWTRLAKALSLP
T1 sequence (P51617 whole entry): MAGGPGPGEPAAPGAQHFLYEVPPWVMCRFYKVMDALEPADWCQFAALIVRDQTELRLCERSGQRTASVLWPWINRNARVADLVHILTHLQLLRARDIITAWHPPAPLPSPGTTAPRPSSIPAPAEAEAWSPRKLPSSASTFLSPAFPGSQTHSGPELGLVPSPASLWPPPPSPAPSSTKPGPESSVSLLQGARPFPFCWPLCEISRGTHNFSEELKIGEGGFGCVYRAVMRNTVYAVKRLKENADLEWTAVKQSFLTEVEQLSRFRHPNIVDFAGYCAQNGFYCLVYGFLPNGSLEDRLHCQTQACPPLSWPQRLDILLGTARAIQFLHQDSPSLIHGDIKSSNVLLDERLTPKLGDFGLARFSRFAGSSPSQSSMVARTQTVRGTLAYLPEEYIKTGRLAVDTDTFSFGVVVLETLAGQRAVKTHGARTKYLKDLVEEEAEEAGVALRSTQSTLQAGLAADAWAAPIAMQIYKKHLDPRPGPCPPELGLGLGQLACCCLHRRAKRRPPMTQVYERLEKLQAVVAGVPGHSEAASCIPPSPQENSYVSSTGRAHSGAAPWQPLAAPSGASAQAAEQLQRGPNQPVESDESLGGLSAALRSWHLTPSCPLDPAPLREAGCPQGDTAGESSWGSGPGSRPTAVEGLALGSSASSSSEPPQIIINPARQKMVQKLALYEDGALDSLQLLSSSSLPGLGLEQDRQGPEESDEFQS
T1 sequence (Q9NWZ3 whole entry): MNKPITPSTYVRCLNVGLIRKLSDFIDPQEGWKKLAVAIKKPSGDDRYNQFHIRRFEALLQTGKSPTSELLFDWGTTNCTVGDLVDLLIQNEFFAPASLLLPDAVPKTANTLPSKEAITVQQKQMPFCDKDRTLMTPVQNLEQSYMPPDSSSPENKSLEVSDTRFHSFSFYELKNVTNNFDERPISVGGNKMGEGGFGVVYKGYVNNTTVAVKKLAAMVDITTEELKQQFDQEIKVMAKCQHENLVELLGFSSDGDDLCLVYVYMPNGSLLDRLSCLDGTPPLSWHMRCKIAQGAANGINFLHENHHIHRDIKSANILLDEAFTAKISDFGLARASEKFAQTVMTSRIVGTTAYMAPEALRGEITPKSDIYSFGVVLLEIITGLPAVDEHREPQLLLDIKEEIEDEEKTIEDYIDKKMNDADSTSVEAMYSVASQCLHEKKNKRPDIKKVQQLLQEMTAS

Ac-ITVAASVTLTGRQIKIWFQNRRMKWKK-NH2 [Peptide P7-A4-Pen]
cell proliferation [1]: strongly inhibited cell proliferation

Ac-ITVYASVTLTGRQIKIWFQNRRMKWKK-NH2 [Peptide P7-Pen]
TLR7-mediated cytokine expression [2]: no effect
recruitment of IRAKs (1, 2 and 4) to MyD88 [3]: abrogated
reducing expression of pro-inflammatory cytokines in THP-1 TRAM KO cells versus control cells [4]: as effective

Ac-ITVYASVTLTGRRRRRRRRRRR-NH2 [Peptide P7-Arg11]
basal toxicity [5]: higher basal toxicity
phosphorylation of STAT1 ([6]; 10 μM): strongly inhibited
phosphorylation of STAT1 ([6]; 20 μM): fully abrogated
